Experimental findings from patent US20260226086A1, “COMPOUNDS AND COMPOSITIONS AS STAT3 DEGRADERS AND USES THEREOF” (REGENTS OF THE UNIVERSITY OF MICHIGAN, priority 2023, published 2026) are described below.

Molecules are shown by their SMILES.

As a reminder, the IC50 is the concentration that gives 50% inhibition. A lower IC50 goes with greater potency. Broadly, the DC50 is the midpoint of the concentration-degradation curve. As a reminder, the Dmax is the greatest extent of degradation seen. Read a low Dmax as a partial loss of target.

Type in all cases: cell-based
One assay concerns SU-DHL-1 cells. Description: CellTiter-Glo 2.0 cell viability assay, SU-DHL-1. Conditions: Homo sapiens, 96 h, 4 days. The method, then:
For example, cell viability may be determined by CellTiter-Glo 2.0 Cell Viability Assay. In a typical procedure, cells seeded at certain amounts of cells (e.g., 1000 cells) per well are incubated with serially diluted compounds for certain period (e.g., 4 days) under certain conditions (e.g., at 37° C. with 5% CO2). At the end of treatment, CellTiter-Glo 2.0 is added to the wells and luminescence is acquired on TECAN SPARK plate reader. Untreated cells are used as control, Data points are fit with an equation (e.g., a four-parameter equation) to generate a concentration-response curve. IC50 values are calculated using a nonlinear regression analysis of the mean±SD from triplicate.
SU-DHL-1 and SUP-M2 cell viability was determined by CellTiter-Glo 2.0 Cell Viability Assay (Promega). SU-DHL-1 cell line was purchased from ATCC (Manassas, VA) and SUP-M2 (ACC-509) was purchased from DSMZ (Germany). RPMI 1640 medium and fetal bovine serum (FBS) were purchased from Gibco/Thermo Fisher Scientific. In a typical procedure, cells seeded at 1000 cells per well in 384-well white plates (Corning) were incubated with serially diluted compounds for 4 days at 37° C. with 5% C02. At the end of treatment, CellTiter-Glo 2.0 was added to the wells and luminescence was acquired on TECAN SPARK plate reader. Untreated cells were used as control. Data points were fit with a four-parameter equation to generate a concentration-response curve. IC50 values were calculated using a nonlinear regression analysis of the mean±SD from triplicate.

The test system of the next assay is SUP-M2 cells. Kind of assay: CellTiter-Glo 2.0 cell viability assay, SUP-M2. Conditions: SUP-M2, 96 h, 4 days. Summed up:
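IC50 derived by four-parameter nonlinear regression on triplicate luminescence data (CellTiter-Glo 2.0), normalised to untreated controls. Cells plated at 1000/well received serial compound dilutions for 4 days at 37 °C with 5% CO2.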
For orientation: ATP-based viability assays read luminescence as a measure of living cells.

Another assay has as its target T1, STAT3 (Homo sapiens, UniProt P40763).
T1 construct: This cell line is a clone created by using CRISPR-Cas9 to fuse HiBiT to the 3′ end of STAT3 in HeLa cells; host or cells: STAT3-HiBiT KI HeLa cell line (CRISPR-Cas9 knock-in clone)
Description: HiBiT assay, STAT3 degradation in STAT3-HiBiT KI HeLa cells. Conditions: 24 h; for DC50: read-out: STAT3 Degradation (HeLa 24 h HiBit) DC50. Summed up:
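Luminescence of endogenous HiBiT-tagged STAT3 (C-terminal knock-in, HeLa) was measured with lytic Nano-Glo detection after 24 h exposure to serially diluted compounds at 37 °C. Cells plated at 20000/well; untreated cells served as control, and triplicate means were fit by four-parameter regression to give IC50.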
Background: HiBiT is a short tag that completes a luciferase, so light tracks the accessible tagged protein.

T1 sequence (P40763 whole entry): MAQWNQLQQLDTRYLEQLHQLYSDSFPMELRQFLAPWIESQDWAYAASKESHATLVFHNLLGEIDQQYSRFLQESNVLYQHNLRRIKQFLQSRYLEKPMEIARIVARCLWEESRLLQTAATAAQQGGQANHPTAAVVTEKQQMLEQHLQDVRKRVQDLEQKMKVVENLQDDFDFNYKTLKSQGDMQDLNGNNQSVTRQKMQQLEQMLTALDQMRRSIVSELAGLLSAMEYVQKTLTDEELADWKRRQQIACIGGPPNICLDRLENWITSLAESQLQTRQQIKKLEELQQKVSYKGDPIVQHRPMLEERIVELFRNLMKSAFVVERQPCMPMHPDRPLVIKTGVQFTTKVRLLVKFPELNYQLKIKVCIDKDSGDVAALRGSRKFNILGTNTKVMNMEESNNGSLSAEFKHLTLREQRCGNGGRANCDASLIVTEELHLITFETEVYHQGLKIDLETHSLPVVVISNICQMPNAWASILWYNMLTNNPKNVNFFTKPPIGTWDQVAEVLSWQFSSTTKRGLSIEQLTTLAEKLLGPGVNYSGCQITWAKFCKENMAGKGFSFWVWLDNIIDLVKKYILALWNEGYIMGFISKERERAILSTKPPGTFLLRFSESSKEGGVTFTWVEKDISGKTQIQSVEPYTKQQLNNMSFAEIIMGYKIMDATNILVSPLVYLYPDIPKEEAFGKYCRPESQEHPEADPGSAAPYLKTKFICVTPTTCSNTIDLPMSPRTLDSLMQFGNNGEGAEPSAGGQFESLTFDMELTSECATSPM

With `Cc1ncsc1-c1ccc([C@H](C)NC(=O)[C@@H]2C[C@@H](O)CN2C(=O)[C@@H](NC(=O)CCCCCC(=O)N2CC[C@H]3CC[C@@H](C(=O)N[C@@H](CCC(N)=O)C(=O)NC(c4ccccc4)c4ccccc4)N3C(=O)[C@@H](NC(=O)c3cc4cc(C(=O)P(=O)(O)O)ccc4[nH]3)C2)C(C)(C)C)cc1` [Compound 50, (2-(((5S,8S,10aR)-8-(((S)-5-amino-1-(benzhydrylamino)-1,5-dioxopentan-2-yl)carbamoyl)-3-(7-(((S)-1-((2S,4R)-4-hydroxy-2-(((S)-1-(4-(4-methylthiazol-5-yl)phenyl)ethyl)carbamoyl)pyrrolidin-1-yl)-3,3-dimethyl-1-oxobutan-2-yl)amino)-7-oxoheptanoyl)-6-oxodecahydropyrrolo[1,2-a][1,5]diazocin-5-yl)carbamoyl)-1H-indole-5-carbonyl)phosphonic acid], the IC50 with SU-DHL-1 cells and in the assay on SUP-M2 cells was 10 to 100 nM each time. Further, the DC50 on STAT3 fell in the range of 100 to 1000 nM.

Take `CCS(=O)(=O)c1ccc(CNC(=O)[C@H](CCC(N)=O)NC(=O)[C@@H]2CC[C@@H]3CCN(C(=O)CCCCCCc4cn([C@H](C(=O)N5C[C@H](O)C[C@H]5C(=O)N[C@@H](C)c5ccc(-c6scnc6C)cc5)C(C)(C)C)nn4)C[C@H](NC(=O)c4cc5cc(C(=O)P(=O)(O)O)ccc5[nH]4)C(=O)N32)cc1` [Compound 15, (2-(((5S,8S,10aR)-8-(((S)-5-amino-1-((4-(ethylsulfonyl)benzyl)amino)-1,5-dioxopentan-2-yl)carbamoyl)-3-(7-(1-((S)-1-((2S,4R)-4-hydroxy-2-(((S)-1-(4-(4-methylthiazol-5-yl)phenyl)ethyl)carbamoyl)pyrrolidin-1-yl)-3,3-dimethyl-1-oxobutan-2-yl)-1H-1,2,3-triazol-4-yl)heptanoyl)-6-oxodecahydropyrrolo[1,2-a][1,5]diazocin-5-yl)carbamoyl)-1H-indole-5-carbonyl)phosphonic acid]: the IC50 with SU-DHL-1 cells was 10 to 100 nM. Further, the IC50 with SUP-M2 cells lay within 10 to 100 nM. Also, at STAT3, the Dmax at 1 µM is over 80% and the half-maximal degradation concentration (DC50) is under 10 nM.

`CCS(=O)(=O)c1ccc(CNC(=O)[C@H](CCC(N)=O)NC(=O)[C@@H]2CC[C@@H]3CCN(C(=O)CCCCc4cn([C@H](C(=O)N5C[C@H](O)C[C@H]5C(=O)N[C@@H](C)c5ccc(-c6scnc6C)cc5)C(C)(C)C)nn4)C[C@H](NC(=O)c4cc5cc(C(=O)P(=O)(O)O)ccc5[nH]4)C(=O)N32)cc1` [Compound 11, (2-(((5S,8S,10aR)-8-(((S)-5-amino-1-((4-(ethylsulfonyl)benzyl)amino)-1,5-dioxopentan-2-yl)carbamoyl)-3-(5-(1-((S)-1-((2S,4R)-4-hydroxy-2-(((S)-1-(4-(4-methylthiazol-5-yl)phenyl)ethyl)carbamoyl)pyrrolidin-1-yl)-3,3-dimethyl-1-oxobutan-2-yl)-1H-1,2,3-triazol-4-yl)pentanoyl)-6-oxodecahydropyrrolo[1,2-a][1,5]diazocin-5-yl)carbamoyl)-1H-indole-5-carbonyl)phosphonic acid]: the IC50 with SU-DHL-1 cells lay within 10 to 100 nM. Also, in the assay on SUP-M2 cells, the IC50 was under 10 nM. On STAT3, the maximal degradation (Dmax) at 1 µM is over 80% and the 50% degradation concentration (DC50) is under 10 nM.

As to `Cc1ncsc1-c1ccc([C@H](C)NC(=O)[C@@H]2C[C@@H](O)CN2C(=O)[C@@H](n2cc(CCCc3cccc(OC[C@H](CCC(N)=O)NC(=O)[C@@H]4CC[C@@H]5CCN(C(=O)C6CCN(C)CC6)C[C@H](NC(=O)c6cc7cc(C(=O)P(=O)(O)O)ccc7[nH]6)C(=O)N54)c3Cl)nn2)C(C)(C)C)cc1` [Compound 32, (2-(((5S,8S,10aR)-8-(((S)-5-amino-1-(2-chloro-3-(3-(1-((S)-1-((2S,4R)-4-hydroxy-2-(((S)-1-(4-(4-methylthiazol-5-yl)phenyl)ethyl)carbamoyl)pyrrolidin-1-yl)-3,3-dimethyl-1-oxobutan-2-yl)-1H-1,2,3-triazol-4-yl)propyl)phenoxy)-5-oxopentan-2-yl)carbamoyl)-3-(1-methylpiperidine-4-carbonyl)-6-oxodecahydropyrrolo[1,2-a][1,5]diazocin-5-yl)carbamoyl)-1H-indole-5-carbonyl)phosphonic acid], in the assay on SU-DHL-1 cells, the concentration for half-maximal inhibition (IC50) fell in the range of 10 to 100 nM. The IC50 in the assay on SUP-M2 cells fell in the range of 100 to 1000 nM. For the same molecule, on STAT3, the Dmax at 1 µM is over 80% and the DC50 was 10 to 100 nM.

With `Cc1ncsc1-c1ccc([C@H](C)NC(=O)[C@@H]2C[C@@H](O)CN2C(=O)[C@@H](NC(=O)CCCCC(=O)N2CC[C@H]3CC[C@@H](C(=O)N[C@@H](CCC(N)=O)C(=O)NC(c4ccccc4)c4ccccc4)N3C(=O)[C@@H](NC(=O)c3cc4cc(C(=O)P(=O)(O)O)ccc4[nH]3)C2)C(C)(C)C)cc1` [Compound 49, (2-(((5S,8S,10aR)-8-(((S)-5-amino-1-(benzhydrylamino)-1,5-dioxopentan-2-yl)carbamoyl)-3-(6-(((S)-1-((2S,4R)-4-hydroxy-2-(((S)-1-(4-(4-methylthiazol-5-yl)phenyl)ethyl)carbamoyl)pyrrolidin-1-yl)-3,3-dimethyl-1-oxobutan-2-yl)amino)-6-oxohexanoyl)-6-oxodecahydropyrrolo[1,2-a][1,5]diazocin-5-yl)carbamoyl)-1H-indole-5-carbonyl)phosphonic acid], the IC50 with SU-DHL-1 cells and with SUP-M2 cells was 10 to 100 nM each time. On STAT3, the DC50 was in the range of 10 to 100 nM.

Consider `Cc1ncsc1-c1ccc([C@H](C)NC(=O)[C@@H]2C[C@@H](O)CN2C(=O)[C@@H](n2cc(CCCCC(=O)N3CC[C@H]4CC[C@@H](C(=O)N[C@@H](CCC(N)=O)C(=O)NCc5cccc(Cl)c5)N4C(=O)[C@@H](NC(=O)c4cc5cc(C(=O)P(=O)(O)O)ccc5[nH]4)C3)nn2)C(C)(C)C)cc1` [Compound 10, (2-(((5S,8S,10aR)-8-(((S)-5-amino-1-((3-chlorobenzyl)amino)-1,5-dioxopentan-2-yl)carbamoyl)-3-(5-(1-((S)-1-((2S,4R)-4-hydroxy-2-(((S)-1-(4-(4-methylthiazol-5-yl)phenyl)ethyl)carbamoyl)pyrrolidin-1-yl)-3,3-dimethyl-1-oxobutan-2-yl)-1H-1,2,3-triazol-4-yl)pentanoyl)-6-oxodecahydropyrrolo[1,2-a][1,5]diazocin-5-yl)carbamoyl)-1H-indole-5-carbonyl)phosphonic acid], for which the IC50 with SU-DHL-1 cells was 10 to 100 nM. In addition, the IC50 in the assay with SUP-M2 cells fell in the range of 10 to 100 nM. At STAT3, the Dmax at 1 µM was over 80% and the DC50 was 10 to 100 nM.

For the molecule `Cc1ncsc1-c1ccc([C@H](C)NC(=O)[C@@H]2C[C@@H](O)CN2C(=O)[C@@H](n2cc(CCC(=O)N3CC[C@H]4CC[C@@H](C(=O)N[C@@H](CCC(N)=O)C(=O)NC(c5ccccc5)c5ccccc5)N4C(=O)[C@@H](NC(=O)c4cc5cc(C(=O)P(=O)(O)O)ccc5[nH]4)C3)nn2)C(C)(C)C)cc1` [Compound 55, (2-(((5S,8S,10aR)-8-(((S)-5-amino-1-(benzhydrylamino)-1,5-dioxopentan-2-yl)carbamoyl)-3-(3-(1-((S)-1-((2S,4R)-4-hydroxy-2-(((S)-1-(4-(4-methylthiazol-5-yl)phenyl)ethyl)carbamoyl)pyrrolidin-1-yl)-3,3-dimethyl-1-oxobutan-2-yl)-1H-1,2,3-triazol-4-yl)propanoyl)-6-oxodecahydropyrrolo[1,2-a][1,5]diazocin-5-yl)carbamoyl)-1H-indole-5-carbonyl)phosphonic acid], the half-inhibitory concentration (IC50) in the assay on SU-DHL-1 cells and with SUP-M2 cells was over 1000 nM throughout. In addition, on STAT3, the DC50 was over 1000 nM.

As for `CC(=O)N1CC[C@H]2CC[C@@H](C(=O)N[C@@H](CCC(N)=O)COc3cccc(CCCCNC(=O)C[C@H](NC(=O)[C@@H]4C[C@@H](O)CN4C(=O)[C@@H](n4cc(C5CC5)nn4)C(C)(C)C)c4ccc(-c5scnc5C)cc4)c3Cl)N2C(=O)[C@@H](NC(=O)c2cc3cc(C(=O)P(=O)(O)O)ccc3[nH]2)C1` [Compound 7, (2-(((5S,8S,10aR)-3-acetyl-8-(((S)-5-amino-1-(2-chloro-3-(4-((S)-3-((2S,4R)-1-((S)-2-(4-cyclopropyl-1H-1,2,3-triazol-1-yl)-3,3-dimethylbutanoyl)-4-hydroxypyrrolidine-2-carboxamido)-3-(4-(4-methylthiazol-5-yl)phenyl)propanamido)butyl)phenoxy)-5-oxopentan-2-yl)carbamoyl)-6-oxodecahydropyrrolo[1,2-a][1,5]diazocin-5-yl)carbamoyl)-1H-indole-5-carbonyl)phosphonic acid], the values for the IC50 in the assay on SU-DHL-1 cells and in the assay on SUP-M2 cells were 10 to 100 nM and under 10 nM, respectively. In addition, at STAT3, the Dmax at 1 µM is over 80%. For the same molecule, on STAT3, the DC50 was under 10 nM.
